{"source": "patent US9592260B2", "about": "“Cancer therapy with a parvovirus combined with an HDAC inhibitor” (priority 2010, dated 2017)", "key": {"AsPC-1": {"system": "AsPC-1", "experiment": "LDH assay, H-1PV with or without VPA, PDAC cells", "details": "AsPC-1 (printed AP-1), 72 hours, H-1PV at various MOI, FIG. 7", "protocol": "(§1) APC-1 and Capan-1 cells were plated in 96 wells plates (2000 cells/well). After 16 hours, cell were infected with H-1PV at the indicated MOI and grown in the presence or absence of VPA for additional 72 hours. Cellular lysis was measured by LDH assay.\n(§2) Parvovirus cytotoxicity was measured by evaluating the release of lactate dehydrogenase in the medium using the CytoTox 96 kit from Promega (Mannheim, Germany). The day before infection, 2000 cells were seeded per well in 96-well plate in 50 μl of culture medium. After 24 hours, cells were infected with 50 μl of serum-free medium containing H-1PV or treated with HDAC inhibitors in 7 replicates per condition. The day of measurement, 3 out of 7 wells were incubated for 30 minutes with lysis buffer to estimate the maximum LDH release under conditions of 100% lysis. Afterwards, the plate was centrifuged and 50 μl of supernatant were mixed with the substrate mix. The LDH enzyme catalyzes a colorimetric reaction that is indicative of the amount of enzyme released in the medium. After 30 minutes, the reaction was stopped and analyzed using the Elisa reader MultiScan at 492 nm.\n(§3) Cells were seeded in 96 wells plate and then infected with various concentrations of H-1PV in the presence or absence of the HDACI Valproic acid (VPA)."}, "Capan-1": {"system": "Capan-1", "experiment": "LDH assay, H-1PV with or without VPA, PDAC cells", "details": "72 hours, H-1PV at various MOI, FIG. 7", "protocol": "as §1, §2, §3"}, "HeLa established tumors": {"system": "HeLa established tumors", "assay_type": "in vivo, nude rat", "details": "VPA 100 mg/kg; compared with mock-treated controls", "from_the_text": "Data shown represents the average values with standard deviation bars."}, "[1]": {"system": "cervical carcinoma cell cultures (HeLa, CaSki, SiHa, CxCa)", "experiment": "LDH assay, H-1PV with or without HDACI, statements over all cervical cultures", "assay_type": "cell-based, human", "details": "VPA 1 mM, 72 h, FIG. 5", "protocol": "Cervical cancer derived cell lines (HeLa, CaSki, SiHa) and non-established cervical cancer cell cultures (CxCa) were infected with H-1PV at the indicated MOIs (pfu/cell) and grown for 72 h in the presence (grey bars) or absence (white bars) of VPA (1 mM). After incubation, cell lysis was evaluated by measuring the release of lactate dehydrogenase (LDH). Hatched bars at the right hand side of each chart show the minimal dose of H-1PV able to kill 90-100% of the cancer cells as monotherapy.\nThe sub-lethal dose of VPA boosted parvovirus-induced cell killing in a synergistic manner, increasing by up to 50-100%. […] Similar results were also obtained combining H-1PV with NaB, TSA or SaHa (Table 2)."}}}
{"smiles": "CCCC(CCC)C(=O)O", "note": "[VPA, valproic acid]", "values": [{"measurement": "cell lysis / cytotoxicity (LDH assay)", "setting": "AsPC-1", "value": "no effect"}, {"measurement": "cell lysis / cytotoxicity (LDH assay)", "setting": "Capan-1", "value": "no effect"}, {"measurement": "tumour growth", "setting": "HeLa established tumors", "value": "failed to impair tumour growth"}, {"measurement": "effect on cellular growth when applied singly", "setting": "[1]", "value": "did not have any significant effect"}]}
